Experimental data taken from PMC10504561 (Plant Communications, 2023).

What was measured:
Assay in all cases: LC-DAD of product
Format in all cases: biochemical
Conditions in all cases: S-adenosyl-L-methionine co-substrate, pH 7.5, 28 °C, 2 h
Gmγ-TMT3 = molecular target: T1, Gmγ-TMT3 (Glycine max, UniProt A0A4D6BMW5)
T1 sequence (A0A4D6BMW5 1-302): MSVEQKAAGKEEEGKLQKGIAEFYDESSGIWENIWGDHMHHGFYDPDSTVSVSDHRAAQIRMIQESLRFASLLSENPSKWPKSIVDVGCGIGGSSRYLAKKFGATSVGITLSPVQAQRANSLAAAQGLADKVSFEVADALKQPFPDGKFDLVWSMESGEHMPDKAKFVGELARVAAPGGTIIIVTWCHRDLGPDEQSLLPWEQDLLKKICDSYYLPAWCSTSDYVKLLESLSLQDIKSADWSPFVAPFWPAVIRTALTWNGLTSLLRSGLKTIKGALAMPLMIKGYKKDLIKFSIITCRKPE

Gmγ-TMT1 = molecular target: T2, Gmγ-TMT1 (Glycine max, UniProt A0A4D6BQA3)
T2 sequence (A0A4D6BQA3 1-296): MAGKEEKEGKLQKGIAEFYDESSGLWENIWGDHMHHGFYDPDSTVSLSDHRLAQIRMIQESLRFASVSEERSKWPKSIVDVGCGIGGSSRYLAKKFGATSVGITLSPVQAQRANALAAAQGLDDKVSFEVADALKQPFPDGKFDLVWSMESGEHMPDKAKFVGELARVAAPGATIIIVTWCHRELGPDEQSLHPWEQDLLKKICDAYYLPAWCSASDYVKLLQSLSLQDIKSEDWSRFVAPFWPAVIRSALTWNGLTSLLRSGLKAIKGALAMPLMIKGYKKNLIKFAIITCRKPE

Gmγ-TMT2 = molecular target: T3, Gmγ-TMT2 (Glycine max, UniProt Q56GA2)
T3 sequence (Q56GA2 51-350): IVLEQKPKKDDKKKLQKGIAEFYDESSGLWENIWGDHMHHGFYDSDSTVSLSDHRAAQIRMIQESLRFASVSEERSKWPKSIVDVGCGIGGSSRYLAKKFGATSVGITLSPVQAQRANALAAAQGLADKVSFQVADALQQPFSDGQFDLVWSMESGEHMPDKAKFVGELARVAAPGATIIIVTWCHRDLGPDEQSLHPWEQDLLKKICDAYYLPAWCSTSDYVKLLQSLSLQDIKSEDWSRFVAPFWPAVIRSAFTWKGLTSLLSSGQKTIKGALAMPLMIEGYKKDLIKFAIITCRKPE

Cc1c(O)cc2c(c1C)O[C@](C)(CCC[C@H](C)CCC[C@H](C)CCCC(C)C)CC2 [γ-T]
activity (Gmγ-TMT3): Gmγ-TMT3 had three-fold higher activity toward γ-T than Gmγ-TMT1 and Gmγ-TMT2 | activity (Gmγ-TMT1): Gmγ-TMT3 had three-fold higher activity toward γ-T than Gmγ-TMT1 and Gmγ-TMT2 | activity (Gmγ-TMT2): Gmγ-TMT3 had three-fold higher activity toward γ-T than Gmγ-TMT1 and Gmγ-TMT2
